Bounds are passed on as bounds.

The first series relates to Staphylococcus aureus or Streptococcus species. As to the kind of experiment: Murine Assay: in vivo antimicrobial activity, survival of mice infected intraperitoneally with bacteria.
Conditions: not given
As for the experimental part:
Antimicrobial activity was tested in vivo using the Murine Assay procedure. Groups of female mice (six mice of 18-20 grams each) were injected intraperitoneally with bacteria which were thawed just prior to use and suspended in brain heart infusion with 4% brewers yeast (Staphylococcus aureus) or brain heart infusion (Streptococcus species). Antibiotic treatment at six dose levels per drug was administered one hour and five hours after infection by either oral intubation or subcutaneous routes. Survival was observed daily for six days. ED50 values based on mortality ratios were calculated using probit analysis. The subject compounds are compared against well-known antimicrobials vancomycin and U-100592 as controls. See “Upjohn Oxazolidinone Antibacterial Agent”, posters presented at the 35th Interscience Conference on Antimicrobial Agents and Chemotherapy.
Take `COC(=O)N1CC(c2ccc(N3C[C@H](CNC(C)=O)OC3=O)cc2F)C1` [Example 83, (S)-N-[[3-[3-Fluoro-4-[1-(methoxycarbonyl)-3-azetidinyl]phenyl]-2-oxo-5-oxazolidinyl]methyl]acetamide]: the ED50 came out at 7.5 mg/kg. Same read-out and setting: the value for `COC(=O)N1CC=C(c2ccc(N3C[C@H](CNC(C)=O)OC3=O)cc2)CC1` [Example 62, (S)-(−)-4-[4-[5-[(Acetylamino)methyl]-2-oxo-3-oxazolidinyl]phenyl]-3,6-dihydro-1(2H)-pyridinecarboxylic acid methyl ester] was 12 mg/kg.

Still in this series, the particulars now being: Table 1; female mice; treatment 1 h and 5 h after infection, oral intubation or subcutaneous; survival over six days; probit analysis of mortality ratios.
For the compound `CC(=O)NC[C@H]1CN(c2ccc(C3(C)CN(C(=O)C(Cl)Cl)C3)c(F)c2)C(=O)O1` [Example 6, (S)-N-[[3-[3-Fluoro-4-[1-(dichloroacetyl)-3-(3-methyl) -azetidinyl]-phenyl]-2-oxo-5-oxazolidinyl]methyl]-acetamide], the “ED50” value is above 20.00 mg/kg. Same read-out and setting: the value for `CC(=O)NC[C@H]1CN(c2ccc(C3(C)CN(CC#N)C3)c(F)c2)C(=O)O1` [Example 12, (S)-N-[[3-[3-Fluoro-4-[1-(cyanomethyl)-3-(3-methyl) -azetidinyl]-phenyl]-2-oxo-5-oxazolidinyl]methyl]-acetamide] was 20.00 mg/kg; that for `COC(=O)N1CC(C)(c2ccc(N3C[C@H](CNC(C)=O)OC3=O)cc2F)C1` [Example 3] was 5.00 mg/kg; that for `CC(=O)NC[C@H]1CN(c2ccc(C3(C)CN(CCF)C3)c(F)c2)C(=O)O1` [Example 11, (S)-N-[[3-[3-Fluoro-4-[1-(2-fluoroethyl)-3-(3-methyl) -azetidinyl]-phenyl]-2-oxo-5-oxazolidinyl]methyl]-acetamide] was above 20.00 mg/kg. On the same count and under the same terms, under `COCC(=O)N1CC(C)(c2ccc(N3C[C@H](CNC(C)=O)OC3=O)cc2F)C1` [Example 4, (S)-N-[[3-[3-Fluoro-4-[1-(methoxyacetyl)-3-(3-methyl) -azetidinyl]-phenyl]-2-oxo-5-oxazolidinyl]methyl]-acetamide] stands above 20.00 mg/kg; under `CC(=O)NC[C@H]1CN(c2ccc(C3=CCN(C(=O)CO)CC3)c(F)c2)C(=O)O1` [Example 40, (S)-(−)-N-[[3-[4-[1-(Hydroxyacetyl)-3,6-dihydro-2H-pyridin-4-yl]-3-fluoropheny]-2-oxo-5-oxazolidinyl]methyl]acetamide], 1.00 mg/kg.

Staying with this series, now noted: Table 1; female mice; treatment 1 h and 5 h after infection, oral intubation or subcutaneous; survival over six days; probit analysis of mortality ratios; read-out: ED50.
Consider `CC(=O)NC[C@H]1CN(c2ccc(C3CCN(C(=O)CO)CC3)c(F)c2)C(=O)O1` [Example 22, (S)-(−)-N-[[3-[4-[1-(Hydroxyacetyl)-4-piperidinyl]-3-fluorophenyl]-2-oxo-5-oxazolidinyl]methyl]acetamide], for which the ED50 stood at 2.3 mg/kg. The same measure, in the same setting: under `CC(=O)NC[C@H]1CN(c2ccc(C3CCN(C(=O)COCc4ccccc4)CC3)c(F)c2)C(=O)O1` [Example 21, (S)-(−)-N-[[3-[4-[1-[(Benzyloxy)acetyl]-4-piperidinyl]-3-fluorophenyl]-2-oxo-5-oxazolidinyl]methyl]acetamide] stands above 20 mg/kg; under `CC(=O)NC[C@H]1CN(c2ccc(C3CCN(C(=O)CO)C3)c(F)c2)C(=O)O1` (stereo partly drawn) [Example 44, (5S)-N-[[3-[3-Fluoro-4-[1-(hydroxyacetyl)-3-pyrrolidinyl]phenyl]-2-oxo-5-oxazolidinyl]methyl]acetamide], 5 mg/kg; under `CC(=O)NC[C@H]1CN(c2ccc(C3CCN(CCF)CC3)c(F)c2)C(=O)O1` [Example 28, (S)-(−)-N-[[3-[4-[1-(2-Fluoroethyl)-4-piperidinyl]-3-fluorophenyl]-2-oxo-5-oxazolidinyl]methyl]acetamide], 15.3 mg/kg. On the same count and under the same terms, the value for `CC(=O)NC[C@H]1CN(c2ccc(C3CCN(C(=O)c4cc5ccccc5[nH]4)CC3)c(F)c2)C(=O)O1` [Example 23, (S)-(−)-N-[[3-[4-[1-(Indole-2-carbonyl)-4-piperidinyl]-3-fluorophenyl]-2-oxo-5-oxazolidinyl]methyl]acetamide] was above 20 mg/kg; that for `CC(=O)NC[C@H]1CN(c2ccc(C3CCN(C(=O)c4ccno4)CC3)c(F)c2)C(=O)O1` [Example 24, (S)-(−)-N-[[3-[4-[1-(Isoxazole-5-carbonyl)-4-piperidinyl]-3-fluorophenyl]-2-oxo-5-oxazolidinyl]methyl]acetamide] was above 20 mg/kg; that for `CC(=O)NC[C@H]1CN(c2ccc(C3CCN(C(=O)COC(C)=O)CC3)c(F)c2)C(=O)O1` [Example 34, (S)-(−)-N-[[2-Oxo-3-[3-fluoro-4-[1-[(acetoxy)acetyl]-4-piperidinyl]phenyl]-5-oxazolidinyl]methyl]acetamide] was 6.3 mg/kg. The same measure, in the same setting: the value for `CC(=O)NC[C@H]1CN(c2ccc(C3=CCN(C(=O)COC(C)=O)CC3)c(F)c2)C(=O)O1` [Example 39, (S)-(−)-N-[[2-Oxo-3-[3-fluoro-4-[-1-[(acetoxy)acetyl]-3,6-dihydro-2H-pyridin-4-yl]phenyl]-5-oxazolidinyl]methyl]acetamide] was 3 mg/kg.

The series is the same for the next values; noted with them: Table 2; female mice; treatment 1 h and 5 h after infection, oral intubation or subcutaneous; survival over six days; probit analysis of mortality ratios.
As to `CC(=O)NC[C@H]1CN(c2ccc(C3=CC[S+]([O-])CC3)cc2)C(=O)O1` (stereo partly drawn) [Example 64, (S)-(−)-N-[[3-[4-(3 6-Dihydro-2H-thiopyran-4-yl)phenyl]-2-oxo-5-oxazolidinyl]methyl]acetamide S-oxide], the 50% effective dose (ED50) stood at 4.60 mg/kg.

For the compound `CC(=O)NC[C@H]1CN(c2ccc(C3=CC[S+]([O-])CC3)c(F)c2)C(=O)O1` (stereo partly drawn) [Example 63, (S)-(−)-N-[[3-[4-(3,6-Dihydro-2H-thiopyran-4-yl)-3-fluoropheny]-2-oxo-5-oxazolidinyl]methyl]acetamide S-oxide], the “ED50” value is recorded as 4.90 mg/kg.

On to `CC(=O)NC[C@H]1CN(c2ccc(C3CCS(=O)(=O)CC3)c(F)c2)C(=O)O1` [Example 51, (S)-(−)-N-[[3-[3-Fluoro-4-(tetrahydro-2H-thiopyran-4-yl)phenyl]-2-oxo-5-oxazolidinyl]methyl]acetamide S,S-dioxide], for which the “ED50” value worked out at 2.80 mg/kg. Take `CC(=O)NC[C@H]1CN(c2ccc(C3=CCCN(C(=O)CO)C3)c(F)c2)C(=O)O1` [Example 71, (S)-N-[[3-[4-[1-(Hydroxyacetyl)-5,6-dihydro-2H-pyridin-3yl]-3-fluoropheny]-2-oxo-5-oxazolidinyl]methyl]acetamide]: the “ED50” value is on record as 13.4 mg/kg.

As for “(5S)-N-[[3-[3-Fluoro-4-[1-(formyl)-3-pyrrolidinyl]phenyl]-2-oxo-5-oxazolidinyl]methyl] [Example 45]”, the “ED50” value was determined as 2.80 mg/kg.

The series is the same for the next values; noted with them: Table 2; female mice; treatment 1 h and 5 h after infection, oral intubation or subcutaneous; survival over six days; probit analysis of mortality ratios; read-out: ED50.
Take `CC(=O)NC[C@H]1CN(c2ccc(C3=CCN(C=O)CC3)cc2)C(=O)O1` [Example 61, (S)-(−)-N-[[3-[4-[1-(Formyl)-3,6-dihydro-2H-pyridin-4-yl]phenyl]-2-oxo-5-oxazolidinyl]methyl]acetamide]: the ED50 stood at 6.1 mg/kg.

`CC(=O)NC[C@H]1CN(c2ccc(C3=CCS(=O)(=O)C3)c(F)c2)C(=O)O1` [69(a), (S)-N-[[3-[3-Fluoro-4-(2,5-dihydro-1,1-dioxido-3-thienyl)-phenyl]-2-oxo-5-oxazolidinyl]methyl]acetamide]: the ED50 came out at 10 mg/kg. On the same count and under the same terms, the value for `CC(=O)NC[C@H]1CN(c2ccc(C3=CCN(C(=O)CO)CC3)cc2)C(=O)O1` [Example 60, (S)-(−)-N-[[3-[4-[1-(Hydroxyacetyl)-3,6-dihydro-2H-pyridin-4-yl]phenyl]-2-oxo-5-oxazolidinyl]methyl]acetamide] was 3.1 mg/kg; that for `CC(=O)NC[C@H]1CN(c2ccc(C3CCOCC3)cc2)C(=O)O1` [Example 53, (S)-(−)-N-[[3-[4-[Tetrahydro-2H-pyran-4-yl]phenyl]-2-oxo-5-oxazolidinyl]methyl]acetamide] was above 20 mg/kg.

Tested on in a further series: not given
Experiment: not given
Conditions: not given
`CC(=O)NC[C@H]1CN(c2ccc(C3=CCCCO3)c(F)c2)C(=O)O1` [Example 80, (S)-N-[[3-[3-Fluoro-4-(3,4-dihydro-2H-pyran-6-yl)phenyl]-2-oxo-5-oxazolidinyl]methyl]acetamide] yielded a melting point of 161 to 163 °C.

As a reminder, the ED50 is the dose at which the effect has come halfway, by size or by number of responders. By melting point is commonly meant the temperature of the solid-liquid transition.

These data come from patent US6358942B1, “Phenyloxazolidinones having a c-c bond 4-8 membered heterocyclic rings” (Pharmacia & Upjohn Company, priority 1995, dated 2002).
